Results as given in ChEMBL document CHEMBL3046419, “Nematicidal activity of anion transport blockers against Meloidogyne incognita, Caenorhabditis elegans and Heterorhabditis bacteriophora” (Pest Manag Sci, 2008).
Converted amounts (≈) assume the structure as drawn. The source made the active and inactive calls. The rule behind the calls is not given here.

Columns and labels:
[1] = tested on: Heterorhabditis bacteriophora; assay: Nematicidal activity against J3 juveniles of Heterorhabditis bacteriophora assessed as mortality at 200 mg/l after 24 hr relative to control; assay type: functional
[2] = tested on: Heterorhabditis bacteriophora; assay: Nematicidal activity against J3 juveniles of Heterorhabditis bacteriophora assessed as mortality at < 200 mg/l; assay type: functional, organism-based
[3] = tested on: Heterorhabditis bacteriophora; assay: Nematicidal activity against J3 juveniles of Heterorhabditis bacteriophora assessed as mortality at 200 mg/l after 168 hr relative to control; assay type: functional
Caenorhabditis elegans [4] = assay: Inhibition of […] in Caenorhabditis elegans N2 Bristol assessed as increase in pharyngeal musle contraction frequency at 50 mg/l after 6 hr relative to control; assay type: functional, organism-based
Caenorhabditis elegans [5] = assay: Nematicidal activity against adult Caenorhabditis elegans N2 Bristol after 168 hr; assay type: functional
Meloidogyne incognita [6] = assay: Nematicidal activity against J2 juveniles of Meloidogyne incognita (root-knot nematode) after 120 hr relative to control; assay type: functional
Caenorhabditis elegans [7] = assay: Nematicidal activity against adult Caenorhabditis elegans N2 Bristol assessed as mortality at 40 mg/l after 24 hr relative to control; assay type: functional
Meloidogyne incognita [8] = assay: Nematicidal activity against J2 juveniles of Meloidogyne incognita (root-knot nematode) after 72 hr relative to control; assay type: functional
Meloidogyne incognita [9] = assay: Ovicidal activity against Meloidogyne incognita (root-knot nematode) eggs assessed as inhibition of egg hatching at 40 mg/l after 24 to 72 hr relative to control; assay type: functional; conditions: read-out: mortality
Caenorhabditis elegans [10] = assay: Inhibition of […] in Caenorhabditis elegans N2 Bristol assessed as increase in pharyngeal musle contraction frequency at 50 mg/l after 1 hr relative to control; assay type: functional
Meloidogyne incognita [11] = assay: Nematicidal activity against J2 juveniles of Meloidogyne incognita (root-knot nematode) after 168 hr relative to control; assay type: functional
Caenorhabditis elegans [12] = assay: Nematicidal activity against adult Caenorhabditis elegans N2 Bristol assessed as mortality at 40 mg/l after 48 hr relative to control; assay type: functional
Caenorhabditis elegans [13] = assay: Nematicidal activity against adult Caenorhabditis elegans N2 Bristol after 48 hr; assay type: functional
Caenorhabditis elegans [14] = assay: Nematicidal activity against adult Caenorhabditis elegans N2 Bristol after 120 hr; assay type: functional
Meloidogyne incognita [15] = assay: Ovicidal activity against Meloidogyne incognita (root-knot nematode) eggs after 168 hr; assay type: functional, organism-based
Meloidogyne incognita [16] = assay: Ovicidal activity against Meloidogyne incognita (root-knot nematode) eggs assessed as inhibition of egg hatching at 40 mg/l after 120 hr relative to control; assay type: functional
Caenorhabditis elegans [17] = assay: Nematicidal activity against adult Caenorhabditis elegans N2 Bristol assessed as mortality at 40 mg/l after 120 hr relative to control; assay type: functional
Caenorhabditis elegans [18] = assay: Nematicidal activity against adult Caenorhabditis elegans N2 Bristol after 72 hr; assay type: functional
Meloidogyne incognita [19] = assay: Nematicidal activity against J2 juveniles of Meloidogyne incognita (root-knot nematode) assessed as mortality at 40 mg/l after 48 hr relative to control; assay type: functional
Meloidogyne incognita [20] = assay: Ovicidal activity against Meloidogyne incognita (root-knot nematode) eggs after 120 hr; assay type: functional, organism-based
[21] = tested on: Bursaphelenchus xylophilus; assay: Nematicidal activity against Bursaphelenchus xylophilus assessed as mortality at 1 mg/l after 48 hr relative to control; assay type: functional
[22] = target: T1, Chloride channel protein clh-3 (Caenorhabditis elegans) (UniProt Q9BMK9); conditions: 100 uM
T1 sequence (whole entry): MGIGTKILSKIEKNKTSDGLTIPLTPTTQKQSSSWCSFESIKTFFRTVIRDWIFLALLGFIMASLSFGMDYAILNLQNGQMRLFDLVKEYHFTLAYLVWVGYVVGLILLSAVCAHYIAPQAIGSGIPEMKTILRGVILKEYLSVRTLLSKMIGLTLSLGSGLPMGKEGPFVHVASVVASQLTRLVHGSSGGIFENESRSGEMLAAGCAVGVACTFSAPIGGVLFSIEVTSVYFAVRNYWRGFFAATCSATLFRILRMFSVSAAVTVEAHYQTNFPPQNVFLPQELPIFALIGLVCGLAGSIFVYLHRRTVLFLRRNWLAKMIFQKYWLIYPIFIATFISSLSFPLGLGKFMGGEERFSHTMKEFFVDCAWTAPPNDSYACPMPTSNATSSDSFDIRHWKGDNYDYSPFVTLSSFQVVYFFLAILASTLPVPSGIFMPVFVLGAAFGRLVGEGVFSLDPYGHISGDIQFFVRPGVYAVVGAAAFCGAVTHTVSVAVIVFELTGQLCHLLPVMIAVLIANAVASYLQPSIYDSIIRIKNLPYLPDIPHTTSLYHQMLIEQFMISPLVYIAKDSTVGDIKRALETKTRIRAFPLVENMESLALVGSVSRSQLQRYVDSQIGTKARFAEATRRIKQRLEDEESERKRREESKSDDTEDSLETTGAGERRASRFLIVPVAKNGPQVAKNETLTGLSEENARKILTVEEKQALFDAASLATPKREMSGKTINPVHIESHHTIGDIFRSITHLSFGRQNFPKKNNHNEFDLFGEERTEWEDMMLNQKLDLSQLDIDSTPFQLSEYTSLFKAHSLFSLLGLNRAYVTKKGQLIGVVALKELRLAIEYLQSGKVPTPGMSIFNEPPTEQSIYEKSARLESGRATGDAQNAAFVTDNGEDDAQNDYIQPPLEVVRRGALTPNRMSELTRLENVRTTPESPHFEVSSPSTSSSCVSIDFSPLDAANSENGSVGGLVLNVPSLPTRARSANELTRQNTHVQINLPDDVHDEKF
Description: Inhibition of CECLC-3 in Caenorhabditis elegans oocyte membrane at 100 uM

Caenorhabditis elegans [23] = assay: Nematicidal activity against adult Caenorhabditis elegans after 24 hr; assay type: functional
Caenorhabditis elegans [24] = assay: Nematicidal activity against J4 juvenile of Caenorhabditis elegans after 24 hr; assay type: functional

CCOP(=S)(OCC)Oc1nc(Cl)c(Cl)cc1Cl [CHLORPYRIFOS]
mortality at 200 µg/mL [1]: 100%
Activity [2]: Active
mortality at 200 µg/mL [3]: < 15%

C[C@@]1(C2CCCC2)Cc2cc(OCCC(=O)O)c(Cl)c(Cl)c2C1=O [INDANYLOXYACETIC ACID]
inhibition (Caenorhabditis elegans [4]): inactive

O=C(O)c1c2ccccc2cc2ccccc12 [ANTHRACENE-9-CARBOXYLIC ACID]
LC50 (Caenorhabditis elegans [5]): 5.35 µg/mL (≈ 24.1 µM)
LC50 (Meloidogyne incognita [6]): 11.2 µg/mL (≈ 50.6 µM)
mortality at 40 µg/mL (Caenorhabditis elegans [7]): < 50%
LC50 (Meloidogyne incognita [8]): 26.8 µg/mL (≈ 120 µM)
mortality at 200 µg/mL [3]: < 15%
inhibition of egg hatching at 40 µg/mL (Meloidogyne incognita [9]): < 50%
inhibition at 50 µg/mL (Caenorhabditis elegans [10]): 20%
LC50 (Meloidogyne incognita [11]): 6.27 µg/mL (≈ 28.2 µM)
inhibition (Caenorhabditis elegans [4]): inactive
mortality at 40 µg/mL (Caenorhabditis elegans [12]): 45%
LC50 (Caenorhabditis elegans [13]): 42.7 µg/mL (≈ 192 µM)
LC50 (Caenorhabditis elegans [14]): 8.44 µg/mL (≈ 38 µM)
EC50 (Meloidogyne incognita [15]): 48 µg/mL (≈ 216 µM)
inhibition at 40 µg/mL (Meloidogyne incognita [16]): < 50%
mortality at 40 µg/mL (Caenorhabditis elegans [17]): 100%
LC50 (Caenorhabditis elegans [18]): 17.8 µg/mL (≈ 80 µM)
mortality at 40 µg/mL (Meloidogyne incognita [19]): < 50%

O=S(=O)(O)c1cc(N=C=S)ccc1/C=C/c1ccc(N=C=S)cc1S(=O)(=O)O
LC50 (Caenorhabditis elegans [5]): 3.14 µg/mL (≈ 6.91 µM)
LC50 (Meloidogyne incognita [6]): 7.48 µg/mL (≈ 16.5 µM)
mortality at 40 µg/mL (Caenorhabditis elegans [7]): < 50%
LC50 (Meloidogyne incognita [8]): 15.4 µg/mL (≈ 33.8 µM)
mortality at 200 µg/mL [3]: < 15%
inhibition of egg hatching at 40 µg/mL (Meloidogyne incognita [9]): < 50%
inhibition at 50 µg/mL (Caenorhabditis elegans [10]): 20%
EC50 (Meloidogyne incognita [20]): 29.1 µg/mL (≈ 64.1 µM)
LC50 (Meloidogyne incognita [11]): 4.46 µg/mL (≈ 9.81 µM)
inhibition (Caenorhabditis elegans [4]): inactive
mortality at 40 µg/mL (Caenorhabditis elegans [12]): > 50%
LC50 (Caenorhabditis elegans [13]): 29.6 µg/mL (≈ 65.2 µM)
LC50 (Caenorhabditis elegans [14]): 4.46 µg/mL (≈ 9.81 µM)
EC50 (Meloidogyne incognita [15]): 23.4 µg/mL (≈ 51.6 µM)
inhibition at 40 µg/mL (Meloidogyne incognita [16]): 50%
mortality at 40 µg/mL (Caenorhabditis elegans [17]): 100%
LC50 (Caenorhabditis elegans [18]): 8.9 µg/mL (≈ 19.6 µM)
mortality at 40 µg/mL (Meloidogyne incognita [19]): < 50%

COc1ccc(/C=C/c2ccccc2O)cc1 [2-hydroxy-4'-methoxystilbene]
mortality at 1 µg/mL [21]: 95%

O=C(O)c1cc([N+](=O)[O-])ccc1NCCCc1ccccc1 [5-NITRO-2-PHENYLPROPYLAMINOBENZOIC ACID [NPPB]]
LC50 (Caenorhabditis elegans [5]): 4.56 µg/mL (≈ 15.2 µM)
LC50 (Meloidogyne incognita [6]): 8.09 µg/mL (≈ 26.9 µM)
inhibition [22]: 90%
mortality at 40 µg/mL (Caenorhabditis elegans [7]): < 50%
LC50 (Meloidogyne incognita [8]): 20.1 µg/mL (≈ 66.9 µM)
mortality at 200 µg/mL [3]: < 15%
inhibition of egg hatching at 40 µg/mL (Meloidogyne incognita [9]): < 50%
inhibition at 50 µg/mL (Caenorhabditis elegans [10]): 20%
EC50 (Meloidogyne incognita [20]): 46.5 µg/mL (≈ 155 µM)
LC50 (Meloidogyne incognita [11]): 5.27 µg/mL (≈ 17.5 µM)
inhibition (Caenorhabditis elegans [4]): inactive
mortality at 40 µg/mL (Caenorhabditis elegans [12]): > 50%
LC50 (Caenorhabditis elegans [13]): 38.4 µg/mL (≈ 128 µM)
LC50 (Caenorhabditis elegans [14]): 7.44 µg/mL (≈ 24.8 µM)
EC50 (Meloidogyne incognita [15]): 34.1 µg/mL (≈ 113 µM)
inhibition at 40 µg/mL (Meloidogyne incognita [16]): 50%
mortality at 40 µg/mL (Caenorhabditis elegans [17]): 100%
LC50 (Caenorhabditis elegans [18]): 15.9 µg/mL (≈ 52.8 µM)
mortality at 40 µg/mL (Meloidogyne incognita [19]): < 50%

CC(C)c1c(O)cc(/C=C/c2ccccc2)cc1O [TAPINAROF]
LC50 (Caenorhabditis elegans [23]): 50 µg/mL (≈ 197 µM)
LC50 (Caenorhabditis elegans [24]): 50 µg/mL (≈ 197 µM)
